In ChEMBL document CHEMBL6153032, “Discovery of a highly potent, N-terminal domain-targeting degrader of AR-FL/AR-V7 for the treatment of prostate cancer” (Eur J Med Chem, 2025):
The source made the active and inactive calls. No cut-off for these calls is given here.

Columns and labels:
[1] = molecular target: T1, Protein cereblon/Androgen receptor (Homo sapiens, UniProt P10275+Q96SW2); assay: PROTAC activity at full length Androgen receptor/CRBN in human 22Rv1 cells assessed as induction of full length Androgen receptor degradation at 5 uM incubated for 24 hrs by Western blot analysis relative to control; format: cell-based
Target sequence in this assay (P10275 whole entry, looked up): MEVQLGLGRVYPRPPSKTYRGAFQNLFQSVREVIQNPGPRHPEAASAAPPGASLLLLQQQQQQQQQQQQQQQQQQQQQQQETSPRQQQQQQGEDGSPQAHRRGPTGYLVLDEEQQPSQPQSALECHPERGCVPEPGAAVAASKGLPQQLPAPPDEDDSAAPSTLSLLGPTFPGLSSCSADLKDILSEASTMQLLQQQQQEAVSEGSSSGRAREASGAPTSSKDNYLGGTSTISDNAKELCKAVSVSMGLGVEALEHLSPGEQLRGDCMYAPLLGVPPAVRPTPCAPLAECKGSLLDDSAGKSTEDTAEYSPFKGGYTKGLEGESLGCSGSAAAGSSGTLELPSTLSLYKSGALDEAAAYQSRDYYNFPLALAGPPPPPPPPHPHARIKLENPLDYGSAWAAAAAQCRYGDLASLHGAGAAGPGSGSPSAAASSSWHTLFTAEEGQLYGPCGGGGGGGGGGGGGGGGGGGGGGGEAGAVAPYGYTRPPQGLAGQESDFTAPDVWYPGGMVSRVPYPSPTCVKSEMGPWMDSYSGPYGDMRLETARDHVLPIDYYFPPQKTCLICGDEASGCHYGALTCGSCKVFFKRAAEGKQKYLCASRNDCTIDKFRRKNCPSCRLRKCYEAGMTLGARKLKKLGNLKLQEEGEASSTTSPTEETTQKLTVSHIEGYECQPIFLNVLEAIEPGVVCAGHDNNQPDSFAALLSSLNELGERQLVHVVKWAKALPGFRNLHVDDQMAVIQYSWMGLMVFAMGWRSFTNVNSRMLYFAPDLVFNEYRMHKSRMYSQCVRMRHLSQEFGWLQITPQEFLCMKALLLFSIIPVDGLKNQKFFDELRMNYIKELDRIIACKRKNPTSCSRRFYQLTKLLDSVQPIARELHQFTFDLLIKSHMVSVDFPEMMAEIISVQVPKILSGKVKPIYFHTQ
Target sequence in this assay (Q96SW2 whole entry, looked up): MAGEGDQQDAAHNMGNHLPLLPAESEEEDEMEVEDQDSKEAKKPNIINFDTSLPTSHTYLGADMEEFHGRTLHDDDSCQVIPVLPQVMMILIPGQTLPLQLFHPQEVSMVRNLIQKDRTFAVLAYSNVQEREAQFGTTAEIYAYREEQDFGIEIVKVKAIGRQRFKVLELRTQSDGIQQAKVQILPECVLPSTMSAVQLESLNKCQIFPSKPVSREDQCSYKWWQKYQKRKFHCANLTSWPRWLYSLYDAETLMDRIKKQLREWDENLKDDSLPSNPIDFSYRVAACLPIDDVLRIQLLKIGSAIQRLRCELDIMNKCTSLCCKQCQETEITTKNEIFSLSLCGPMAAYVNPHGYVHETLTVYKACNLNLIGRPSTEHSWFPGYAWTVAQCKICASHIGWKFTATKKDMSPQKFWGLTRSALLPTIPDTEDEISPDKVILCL

hERG = hERG (Homo sapiens, UniProt Q12809); assay: Inhibition of hERG at 10 uM relative to control; format: toxicity
[2] = Antiproliferative activity against human RWPE-1 cells assessed as cell viability incubated for 4 days by CCK-8 assay; format: toxicity, cell-based
[3] = Toxicity in BALB/c mouse assessed as body weight loss at 10 mg/kg, iv administered once daily for 21 days; format: organism-based; conditions: in vivo, 504 h, time 21 day
CWR22R [4] = assay: Induction of apoptosis in human 22Rv1 cells assessed as early apoptotic cells at 100 nM incubated for 48 hrs by Annexin V/FITC staining based flow cytometry analysis (reference value: 2.08 %); format: functional
[5] = Metabolic stability in mouse liver microsome assessed as intrinsic clearance measured upto 45 mins by LC/MS analysis; format: ADME; conditions: liver microsomes, read-out: CLH
CWR22R [6] = assay: Induction of cell cycle arrest in human 22Rv1 cells assessed as accumulation of cells at S phase at 100 nM incubated for 24 hrs by PI staining based flow cytometry analysis (reference value: 28.73%); format: functional
LNCaP [7] = assay: Antiproliferative activity against human LNCaP cells assessed as cell viability incubated for 4 days by CCK-8 assay; format: functional, cell-based; conditions: 96 h
[8] = Tmax in Sprague-Dawley rat 2 mg/kg, iv by LC-MS/MS analysis; format: ADME, organism-based; conditions: in vivo
CWR22R [9] = assay: Induction of apoptosis in human 22Rv1 cells assessed as viable cells at 500 nM incubated for 48 hrs by Annexin V/FITC staining based flow cytometry analysis (reference value: 94.49%); format: functional; conditions: read-out: Activity
[10] = MRT (0 to infinity) in Sprague-Dawley rat 2 mg/kg, iv by LC-MS/MS analysis; format: ADME, organism-based; conditions: in vivo
CWR22R [11] = assay: Antitumor activity against human 22Rv1 cells xenografted in BALB/c nude mouse assessed as suppression of tumor growth at 10 mg/kg, iv administered once daily for 21 days; format: functional, organism-based; conditions: time 21.0 day
[12] = molecular target: T1, Protein cereblon/Androgen receptor; assay: PROTAC activity at full length Androgen receptor/CRBN in human 22Rv1 cells assessed as induction of full length androgen receptor degradation at 100 nM incubated for 12 hrs in presence of MG132 by Western blot analysis; format: cell-based
Target sequence in this assay (P10275 whole entry, looked up): as the sequence (P10275 whole entry, looked up) above
Target sequence in this assay (Q96SW2 whole entry, looked up): as the sequence (Q96SW2 whole entry, looked up) above

LNCaP [13] = assay: PROTAC activity at AR-V7/CRBN in human LNCaP cells assessed as reduction in AR-V7 level incubated for 24 hrs by Western blot analysis; format: cell-based; conditions: dose <= 5.0 µM
[14] = AUC (0 to t) in Sprague-Dawley rat 2 mg/kg, iv by LC-MS/MS analysis; format: ADME, organism-based; conditions: in vivo
CWR22R [15] = assay: Antitumor activity against human 22Rv1 cells xenografted in BALB/c nude mouse assessed as reduction in AR level at 10 mg/kg, iv administered once daily for 21 days; format: functional, organism-based; conditions: time 21.0 day
CWR22R [16] = assay: Induction of cell cycle arrest in human 22Rv1 cells assessed as accumulation of cells at S phase at 500 nM incubated for 24 hrs by PI staining based flow cytometry analysis (reference value: […]%); format: functional
CWR22R [17] = assay: Induction of apoptosis in human 22Rv1 cells assessed as necrotic cells at 500 nM incubated for 48 hrs by Annexin V/FITC staining based flow cytometry analysis (reference value: 2.31 %); format: functional
CWR22R [18] = assay: Induction of cell cycle arrest in human 22Rv1 cells assessed as accumulation of cells at G2/M phase at 500 nM incubated for 24 hrs by PI staining based flow cytometry analysis (reference value: 8.61%); format: functional
CWR22R [19] = assay: Downregulation of PSA mRNA level in human 22Rv1 cells incubated for 24 hrs by qRT-PCR analysis; format: functional, cell-based; conditions: dose 100-500 nM
[20] = molecular target: T1, Protein cereblon/Androgen receptor; assay: PROTAC activity at full length Androgen receptor/CRBN in human LNCaP cells assessed as reduction in full length androgen receptor level at 1 uM by Western blot analysis; format: cell-based; conditions: time <= 4.0 hrs
Target sequence in this assay (P10275 whole entry, looked up): as the sequence (P10275 whole entry, looked up) above
Target sequence in this assay (Q96SW2 whole entry, looked up): as the sequence (Q96SW2 whole entry, looked up) above

[21] = test system: Protein cereblon/Androgen receptor (Homo sapiens), P10275+Q96SW2 [UNDEFINED MUTATION]; assay: (§1) PROTAC activity at AR-V7/CRBN in human 22Rv1 cells assessed as reduction in AR-V7 level incubated for 24 hrs by Western blot analysis; format: cell-based; conditions: CWR22R, dose <= 5.0 µM
[22] = molecular target: T1, Protein cereblon/Androgen receptor; assay: as §1; format: cell-based; conditions: cwr22r
Target sequence in this assay (P10275 whole entry, looked up, change not shown): as the sequence (P10275 whole entry, looked up) above
Target sequence in this assay (Q96SW2 whole entry, looked up, change not shown): as the sequence (Q96SW2 whole entry, looked up) above

[23] = Toxicity in BALB/c mouse assessed as spleen damage at 10 mg/kg, iv administered once daily for 21 days by H and E staining based analysis; format: organism-based; conditions: in vivo, 504 h, time 21 day
[24] = test system: Protein cereblon/Androgen receptor (Homo sapiens), P10275+Q96SW2 [UNDEFINED MUTATION]; assay: PROTAC activity at AR-V7/CRBN in human 22Rv1 cells assessed as reduction in AR-V7 level at 100 nM incubated for 24 hrs by immunofluorescence analysis; format: cell-based; conditions: CWR22R
[25] = Toxicity in BALB/c mouse assessed as lung damage at 10 mg/kg, iv administered once daily for 21 days by H and E staining based analysis; format: organism-based; conditions: in vivo, 504 h, time 21 day
[26] = test system: Protein cereblon/Androgen receptor (Homo sapiens), P10275+Q96SW2 [UNDEFINED MUTATION]; assay: PROTAC activity at AR-V7/CRBN in human 22Rv1 cells assessed as induction of AR-V7 degradation at 100 nM incubated for 12 hrs in presence of Thalidomide by Western blot analysis; format: cell-based; conditions: CWR22R
[27] = test system: Protein cereblon/Androgen receptor (Homo sapiens), P10275+Q96SW2 [UNDEFINED MUTATION]; assay: PROTAC activity at AR-V7/CRBN in human 22Rv1 cells assessed as induction of AR-V7 degradation at 100 nM incubated for 12 hrs in presence of MLN4924 by Western blot analysis; format: cell-based; conditions: CWR22R
CWR22R [28] = assay: Induction of apoptosis in human 22Rv1 cells assessed as late apoptotic cells at 500 nM incubated for 48 hrs by Annexin V/FITC staining based flow cytometry analysis (reference value: 1.12 %); format: functional
[29] = test system: Protein cereblon/Androgen receptor (Homo sapiens), P10275+Q96SW2 [UNDEFINED MUTATION]; assay: PROTAC activity at AR-V7/CRBN in human 22Rv1 cells assessed as induction of AR-V7 degradation at 1 uM incubated for 24 hrs by Western blot analysis relative to control; format: cell-based; conditions: CWR22R
CWR22R [30] = assay: Downregulation of UBE2C mRNA level in human 22Rv1 cells incubated for 24 hrs by qRT-PCR analysis; format: functional, cell-based; conditions: dose 100-500 nM
[31] = Volume of distribution at steady state in Sprague-Dawley rat 2 mg/kg, iv by LC-MS/MS analysis; format: ADME, organism-based; conditions: in vivo, read-out: Vdss
CWR22R [32] = assay: Induction of apoptosis in human 22Rv1 cells assessed as late apoptotic cells at 100 nM incubated for 48 hrs by Annexin V/FITC staining based flow cytometry analysis (reference value: 1.12 %); format: functional
[33] = molecular target: T1, Protein cereblon/Androgen receptor; assay: PROTAC activity at full length Androgen receptor/CRBN in human LNCaP cells assessed as reduction in full length androgen receptor level incubated for 24 hrs by Western blot analysis; format: cell-based
[34] = Metabolic stability in rat liver microsome assessed as half life measured upto 45 mins by LC/MS analysis; format: ADME; conditions: liver microsomes
[35] = Clearance in Sprague-Dawley rat 2 mg/kg, iv by LC-MS/MS analysis; format: ADME, organism-based; conditions: in vivo
CWR22R [36] = assay: Antiproliferative activity against human 22Rv1 cells incubated for 4 days by CCK-8 assay; format: functional, cell-based; conditions: 22Rv1, 96 h

Sequence of Protein cereblon/Androgen receptor (Homo sapiens), P10275+Q96SW2 [UNDEFINED MUTATION] (P10275 whole entry, looked up, change not shown): as the sequence (P10275 whole entry, looked up) above
Sequence of Protein cereblon/Androgen receptor (Homo sapiens), P10275+Q96SW2 [UNDEFINED MUTATION] (Q96SW2 whole entry, looked up, change not shown): as the sequence (Q96SW2 whole entry, looked up) above
Sequence of hERG (Q12809 whole entry): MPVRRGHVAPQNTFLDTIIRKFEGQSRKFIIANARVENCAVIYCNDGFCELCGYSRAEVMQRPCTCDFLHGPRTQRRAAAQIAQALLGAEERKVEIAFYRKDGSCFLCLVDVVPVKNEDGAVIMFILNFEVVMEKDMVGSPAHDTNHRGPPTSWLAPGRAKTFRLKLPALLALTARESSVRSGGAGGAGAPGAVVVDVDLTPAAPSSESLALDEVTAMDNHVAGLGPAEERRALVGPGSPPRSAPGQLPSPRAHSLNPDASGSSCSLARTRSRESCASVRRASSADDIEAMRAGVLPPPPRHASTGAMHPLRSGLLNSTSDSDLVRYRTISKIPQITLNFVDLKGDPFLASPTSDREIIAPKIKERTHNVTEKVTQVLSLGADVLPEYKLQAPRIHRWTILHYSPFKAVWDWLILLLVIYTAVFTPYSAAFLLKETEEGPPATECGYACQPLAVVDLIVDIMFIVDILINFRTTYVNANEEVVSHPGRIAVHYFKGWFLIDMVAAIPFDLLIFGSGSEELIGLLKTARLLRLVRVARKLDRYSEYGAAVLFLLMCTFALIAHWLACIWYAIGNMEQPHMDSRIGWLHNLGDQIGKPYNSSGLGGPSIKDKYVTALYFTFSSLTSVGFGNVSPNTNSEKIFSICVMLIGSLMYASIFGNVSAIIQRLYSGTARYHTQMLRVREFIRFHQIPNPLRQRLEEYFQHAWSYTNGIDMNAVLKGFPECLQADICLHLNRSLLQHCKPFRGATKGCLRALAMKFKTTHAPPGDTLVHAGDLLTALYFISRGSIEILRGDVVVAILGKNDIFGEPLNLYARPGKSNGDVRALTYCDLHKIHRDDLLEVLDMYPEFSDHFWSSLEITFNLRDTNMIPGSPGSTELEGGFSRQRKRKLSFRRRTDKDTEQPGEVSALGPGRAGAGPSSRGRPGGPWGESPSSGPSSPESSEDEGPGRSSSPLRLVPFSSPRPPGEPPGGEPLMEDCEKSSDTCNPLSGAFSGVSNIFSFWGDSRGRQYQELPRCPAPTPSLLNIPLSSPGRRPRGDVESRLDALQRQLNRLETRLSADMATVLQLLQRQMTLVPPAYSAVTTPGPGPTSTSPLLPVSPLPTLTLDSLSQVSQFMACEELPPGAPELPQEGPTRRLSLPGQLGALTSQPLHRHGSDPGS

CC(C)(c1ccc(OCCNc2cccc3c2C(=O)N(C2CCC(=O)NC2=O)C3=O)cc1)c1ccc(OCc2cccc(N3CCOCC3)n2)cc1 (stereo not drawn)
Activity [1]: 90.2% | inhibition at 10 µM (hERG): < 40% | IC50 at 4 days [2]: > 80 µM | Activity [3]: Non-toxic | Activity (CWR22R [4]): 14.57% | CLint scaled [5]: 296 mL/min/kg | Activity (CWR22R [6]): 43.39% | IC50 (LNCaP [7]): 176 nM | Tmax [8]: 4.98 min | viability at 0.5 µM (CWR22R [9]): 65.1% | MRT inf [10]: 37.2 min | Activity (CWR22R [11]): Active | Activity [12]: Active | Activity (LNCaP [13]): Dose-dependent-effect | AUC(0-t) [14]: 2210 ng·h/mL | Activity (CWR22R [15]): Active | Activity (CWR22R [16]): 38.58% | Activity (CWR22R [17]): 2.4% | Activity (CWR22R [18]): 21.54% | Activity (CWR22R [19]): Dose-dependent-effect | Activity [20]: Dose-dependent-effect | Activity [21]: Dose-dependent-effect | DC50 [22]: 26 nM | Activity [23]: Non-toxic | Activity [24]: Active | Activity [25]: Non-toxic | Activity [26]: Active | Activity [27]: Active | Activity (CWR22R [28]): 15.59% | Activity [29]: 88.7% | Activity (CWR22R [30]): Dose-dependent-effect | Vd [31]: 0.571 L/kg | Activity (CWR22R [32]): 12.29% | DC50 [33]: 180 nM | Activity ([33]; dose <= 5.0 µM): Dose-dependent-effect | half-life [34]: 61.1 min | clearance [35]: 15.1 mL/min/kg | IC50 (CWR22R [36]): 38 nM
